For series [1] the following is noted: as stated for the marketed drug; cited from earlier work.
Series [2] has as its system iBMECs co-cultured with primary human astrocytes and pericytes. The series is described as follows: TNFα perfusion of blood compartment of organ-chip with iBMECs, astrocytes and pericytes. Format: cell-based. The following applies: 10 or 100 ng/ml overnight in blood compartment. The source says: While astrocytes and iBMECs can remain in their respective channels, astrocytes processes protruded through the pores to form direct cell-to-cell contact with the iBMECs, mimicking the astrocyte-end-feet observed in vivo.
In order to quantify the percentage of vascular surface covered with astrocyte protrusions (end-feet like structures), the vascular surface of the are washed in DMEM (without FBS) and stained with the fluorescently labeled wheat germ agglutinin (WGA-647 Invitrogen), a […] able to bind to the vascular glycocalyx (DOI: 10.1002jemt.22602). After 15 minutes at room temperature, chips were rinsed twice with fresh DMEM, fixed in 2% PFA for 20 minutes at room temperature and stained for the astrocyte marker GFAP (Abcam). Following incubation with the anti-mouse secondary antibody (Invitrogen, Alexa Fluor 488) and HOECHS (Abcam) chips were washed in PBS and imaged via confocal microscopy (Zeiss LSM850).
The area underneath the porous membrane was localized using the WGA-647 signal (that stained the whole endothelial surface) and the nuclear fluorescence signal (HOECHST) of endothelial cells. Then, five random areas of each chip were imaged using the GFAP fluorescent (488) signal using a 10× objective (Zeiss). ImageJ software was used to subtract background and then convert the digital signal detected in the GFAP channel into a binary image. Finally, percentage of signal coverage was computed from the binary image as the ratio of bright pixels to the total number of pixels in the image. Image processing and quantification was performed with an automatic macro compiled in ImageJ in order to ensure unbiased signal measurements. Numerical values were collected and statistically analyzed using Graphpad Prism V7.

Take `CC[C@@H](C(N)=O)N1CCCC1=O` [Levetiracetam]: in series [1], the “known BBB permeability” value is reported as “can efficiently penetrate the BBB”.

Turning to TNFα, the “blood-to-brain leakage of dextran after vascular stimulation” value in series [2] is on record as “increase in blood-to-brain leakage”. In series [2] (vs control), the “astrocyte end-feet-like structures covering the vascular surface” value is listed as “decrease in end-feet-like structures” and the astrocyte morphology result was “change in astrocyte morphology”.

Values taken from patent US12241085B2, “Human pluripotent stem cell derived neurodegenerative disease models on a microfluidic chip” (priority 2018, dated 2025).
